The test addresses hNav1.7 (Homo sapiens (Human), UniProt Q15858). The settings on record: voltage-gated sodium channel blocking activity against hNav1.7.

hNav1.7, sequence (Q15858 whole entry): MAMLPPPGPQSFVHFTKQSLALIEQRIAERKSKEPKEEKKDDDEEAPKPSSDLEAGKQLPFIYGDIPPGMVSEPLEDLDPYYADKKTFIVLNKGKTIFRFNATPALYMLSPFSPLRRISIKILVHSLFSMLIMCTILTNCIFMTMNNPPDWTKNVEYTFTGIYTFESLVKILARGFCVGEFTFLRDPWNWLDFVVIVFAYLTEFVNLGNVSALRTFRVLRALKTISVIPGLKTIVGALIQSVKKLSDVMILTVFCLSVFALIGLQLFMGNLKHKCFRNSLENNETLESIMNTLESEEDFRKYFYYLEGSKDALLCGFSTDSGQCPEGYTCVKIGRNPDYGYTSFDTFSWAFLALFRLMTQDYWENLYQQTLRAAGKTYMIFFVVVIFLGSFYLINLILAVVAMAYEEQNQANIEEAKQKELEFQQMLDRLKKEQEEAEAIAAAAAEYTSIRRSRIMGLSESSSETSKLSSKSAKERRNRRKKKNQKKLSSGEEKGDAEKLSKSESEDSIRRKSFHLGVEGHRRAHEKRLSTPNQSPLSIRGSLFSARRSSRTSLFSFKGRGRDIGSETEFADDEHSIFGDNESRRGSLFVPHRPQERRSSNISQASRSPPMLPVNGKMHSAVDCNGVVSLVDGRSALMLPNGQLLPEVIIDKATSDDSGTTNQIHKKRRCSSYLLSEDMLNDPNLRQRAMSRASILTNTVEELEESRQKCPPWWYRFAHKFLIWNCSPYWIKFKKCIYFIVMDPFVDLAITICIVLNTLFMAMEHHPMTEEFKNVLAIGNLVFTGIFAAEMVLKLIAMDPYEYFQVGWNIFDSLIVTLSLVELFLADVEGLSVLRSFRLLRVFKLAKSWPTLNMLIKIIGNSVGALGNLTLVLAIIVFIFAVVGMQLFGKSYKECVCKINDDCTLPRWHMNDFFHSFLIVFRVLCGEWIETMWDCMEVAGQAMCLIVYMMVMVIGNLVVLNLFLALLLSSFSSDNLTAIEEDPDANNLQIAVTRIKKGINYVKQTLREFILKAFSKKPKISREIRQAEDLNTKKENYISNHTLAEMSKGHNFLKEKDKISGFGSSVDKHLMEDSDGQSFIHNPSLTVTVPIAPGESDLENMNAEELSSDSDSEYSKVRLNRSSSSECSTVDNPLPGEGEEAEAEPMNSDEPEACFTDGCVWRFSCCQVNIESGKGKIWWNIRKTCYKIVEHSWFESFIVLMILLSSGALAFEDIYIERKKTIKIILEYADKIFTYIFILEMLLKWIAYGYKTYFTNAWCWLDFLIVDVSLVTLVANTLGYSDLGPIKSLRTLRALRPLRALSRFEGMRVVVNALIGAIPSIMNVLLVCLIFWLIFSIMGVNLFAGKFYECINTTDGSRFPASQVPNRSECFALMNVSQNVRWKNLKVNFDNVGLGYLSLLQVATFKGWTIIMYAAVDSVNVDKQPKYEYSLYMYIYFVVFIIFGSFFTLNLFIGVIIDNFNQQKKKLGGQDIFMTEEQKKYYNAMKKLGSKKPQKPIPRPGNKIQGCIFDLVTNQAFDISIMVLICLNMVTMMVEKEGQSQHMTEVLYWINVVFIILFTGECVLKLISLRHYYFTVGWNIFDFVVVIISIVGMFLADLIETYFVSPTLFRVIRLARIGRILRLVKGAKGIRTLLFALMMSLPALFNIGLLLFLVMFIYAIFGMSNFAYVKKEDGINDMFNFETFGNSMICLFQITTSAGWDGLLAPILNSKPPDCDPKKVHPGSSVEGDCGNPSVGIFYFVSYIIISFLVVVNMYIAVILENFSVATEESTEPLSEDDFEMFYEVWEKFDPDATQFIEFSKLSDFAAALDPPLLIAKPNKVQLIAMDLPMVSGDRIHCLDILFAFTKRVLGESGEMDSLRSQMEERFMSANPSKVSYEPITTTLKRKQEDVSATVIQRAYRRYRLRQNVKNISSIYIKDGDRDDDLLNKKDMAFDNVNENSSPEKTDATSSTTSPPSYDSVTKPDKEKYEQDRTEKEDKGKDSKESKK

The term IC50 denotes the concentration that inhibits the measured activity by half. Compound `O=C1N(Cc2ccc(C(F)(F)F)o2)c2ccccc2[C@]12COc1cc3c(cc12)OCO3` [(I-S), (S)-1′-{[5-(trifluoromethyl)furan-2-yl]methyl}spiro-[furo[2,3-f][1,3]benzodioxole-7,3′-indol]-2′(1′H)-one] gave a half-maximal inhibitory concentration (IC50) of 3 nM. For the compound `O=C1N(Cc2ncccc2C(F)(F)F)c2ccccc2[C@]12COc1cc3c(cc12)OCCO3` [(II-S), (S)-1′-{[3-(trifluoromethyl)pyridin-2-yl]methyl}-2,3-dihydrospiro[furo[2,3-g][1,4]benzodioxine-8,3′-indol]-2′(1′H)-one], the IC50 stood at 5 nM. Against the preceding compound, the IC50 is about 1.7-fold higher.

`O=C1N(Cc2ccc(C(F)(F)F)o2)c2ccccc2C12COc1cc3c(cc12)OCO3` (centres unmarked) [(I), 1′-{[5-(trifluoromethyl)-2-furyl]methyl}spiro[furo[2,3-f][1,3]benzodioxole-7,3′-indol]-2′(1′H)-one] yielded an IC50 of 7 nM. The same measure for `O=C1N(Cc2ncccc2C(F)(F)F)c2ccccc2C12COc1cc3c(cc12)OCCO3` (centres unmarked) [(II), 1′-{[3-(trifluoromethyl)pyridin-2-yl]methyl}-2,3-dihydrospiro[furo[2,3-g][1,4]benzodioxine-8,3′-indol]-2′(1′H)-one]: 15 nM. To `O=C1N(Cc2ccc(C(F)(F)F)o2)c2ccccc2[C@@]12COc1cc3c(cc12)OCO3` [(I-R), (R)-1′-{[5-(trifluoromethyl)furan-2-yl]methyl}spiro[furo[2,3-f][1,3]-benzodioxole-7,3′-indol]-2′(1′H)-one] belongs 4200 nM.

The values are drawn from patent publication US9260446B2, “Synthetic methods for spiro-oxindole compounds” (Xenon Pharmaceuticals Inc., priority 2009, dated 2016).
